Patent US11117947B2, “Double-acylated GLP-1 derivatives” (Novo Nordisk A/S, priority 2011, dated 2021)
Read-outs that look alike come from different tables or passages of the source. Numbered stars: 1 amine (or outer) side, 2 acyl side, 3 side chain; on linkers, the order of the positions; unused ones are H or OH. Square brackets hold non-standard residues; d marks the D form. Side chains are listed from the residue outwards. Peptide text beside a SMILES is read from it. * marks the point of attachment. Decanoyl(10-(4-HOOC-PhO)) = O=C(O)c1ccc(OCCCCCCCCCC(=O)*)cc1; γGlu = O=C(O)[C@H](CCC(=O)[*:2])N[*:1]; C14 diacid = O=C(O)CCCCCCCCCCCCC(=O)*; AEEA = NCCOCCOCC(=O)O; Aib = CC(C)(N)C(=O)O

Tests used:
[1] = Estimate of oral bioavailability: gut injection in rat (caprate), exposure in plasma; type: in vivo; conditions: injection in jejunum, 1000 uM in 55 mg/ml sodium caprate, plasma concentration (pM) at 30 min divided by dosing solution concentration (μM), mean n=4
Procedure, shortened: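 Male Sprague Dawley rats (~240 g, n=4) received 100 μl of 1000 uM derivative in 55 mg/ml sodium caprate by catheter into proximal or mid jejunum. Tail-vein EDTA plasma was sampled up to 240 min. Peptide was quantified by two-antibody bead chemiluminescence immunoassay, giving mean concentration-time profiles (pmol/l).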

[2] = biological target: T1, human GLP-1 receptor (Homo sapiens, UniProt P43220); test: GLP-1 receptor binding: displacement of 125I-GLP-1 (SPA) at low and high albumin; conditions: for Ratio [(IC50/nM) high HSA]/[(IC50/nM) low HSA]: 2.0% HSA vs 0.001% HSA
T1 construct: expressed in transfected cells; membranes
T1 sequence (P43220 24-463): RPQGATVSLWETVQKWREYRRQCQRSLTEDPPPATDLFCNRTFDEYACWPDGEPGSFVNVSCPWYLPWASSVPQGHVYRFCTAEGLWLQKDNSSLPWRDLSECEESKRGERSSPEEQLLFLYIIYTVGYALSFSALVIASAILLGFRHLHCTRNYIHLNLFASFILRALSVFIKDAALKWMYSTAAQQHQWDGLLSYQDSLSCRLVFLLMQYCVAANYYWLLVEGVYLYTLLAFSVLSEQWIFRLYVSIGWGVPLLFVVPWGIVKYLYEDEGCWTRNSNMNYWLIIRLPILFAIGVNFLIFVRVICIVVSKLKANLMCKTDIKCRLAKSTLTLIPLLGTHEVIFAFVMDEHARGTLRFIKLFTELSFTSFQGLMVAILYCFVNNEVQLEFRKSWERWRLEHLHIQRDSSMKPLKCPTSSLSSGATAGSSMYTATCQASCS
Procedure, shortened: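 Membranes from hamster cells stably transfected with the receptor, with WGA SPA beads and 0.06 nM [^125I]-GLP-1(7-36)NH2, incubated 120 min at 30 °C with shaking.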

[3] = low albumin, 0.001% HSA, read-out: IC50/nM (low HSA)

Row | SMILES | Dose-corrected exposure at 30 min [1] | Ratio [(IC50/nM) high HSA]/[(IC50/nM) low HSA] [2] | IC50 [2, 3] [nM] | IC50 ([2]; high albumin, 2.0% HSA, read-out: IC50/nM (high HSA)) [nM]
1 | CC[C@H](C)[C@H](NC(=O)[C@H](Cc1ccccc1)NC(=O)[C@H](CCCCNC(=O)COCCOCCNC(=O)COCCOCCNC(=O)CC[C@H](NC(=O)CCCCCCCCCOc1ccc(C(=O)O)cc1)C(=O)O)NC(=O)[C@H](CCCNC(=N)N)NC(=O)[C@H](C)NC(=O)[C@H](C)NC(=O)[C@H](CCC(N)=O)NC(=O)[C@H](CCC(=O)O)NC(=O)[C@H](CCC(=O)O)NC(=O)[C@H](CCCCNC(=O)COCCOCCNC(=O)COCCOCCNC(=O)CC[C@H](NC(=O)CCCCCCCCCOc1ccc(C(=O)O)cc1)C(=O)O)NC(=O)[C@H](Cc1ccc(O)cc1)NC(=O)[C@H](CO)NC(=O)[C@H](CO)NC(=O)[C@@H](NC(=O)[C@H](CC(=O)O)NC(=O)[C@H](CO)NC(=O)[C@@H](NC(=O)[C@H](Cc1ccccc1)NC(=O)[C@@H](NC(=O)CNC(=O)[C@H](CCC(=O)O)NC(=O)C(C)(C)NC(=O)[C@@H](N)Cc1c[nH]cn1)[C@@H](C)O)[C@@H](C)O)C(C)C)C(=O)N[C@@H](CCC(=O)O)C(=O)N[C@@H](Cc1c[nH]c2ccccc12)C(=O)N[C@@H](CC(C)C)C(=O)N[C@H](C(=O)NCC(=O)O)C(C)C [Example 5, N^ε20-[2-[2-[2-[[2-[2-[2-[[(4S)-4-carboxy-4-[10-(4-carboxyphenoxy)decanoylamino]butanoyl]amino]ethoxy]ethoxy]acetyl]amino]ethoxy]ethoxy]acetyl], N^ε27-[2-[2-[2-[[2-[2-[2-[[(4S)-4-carboxy-4-[10-(4-carboxyphenoxy)decanoylamino]butanoyl]amino]ethoxy]ethoxy]acetyl]amino]ethoxy]ethoxy]acetyl]-[Aib^8,Lys^20,Glu^22,Arg^26,Lys^27,Glu^30,Gly^34]-GLP-1-(7-34)-peptide] (H-H[Aib]EGTFTSDVSSYK([AEEA-AEEA-γGlu-Decanoyl(10-(4-HOOC-PhO))])EEQAARK([AEEA-AEEA-γGlu-Decanoyl(10-(4-HOOC-PhO))])FIEWLVG-OH) | 124 | 79 | – | –
2 | CC[C@H](C)[C@H](NC(=O)[C@H](Cc1ccccc1)NC(=O)[C@H](CCCCNC(=O)COCCOCCNC(=O)COCCOCCNC(=O)CC[C@H](NC(=O)CCCCCCCCCCCCC(=O)O)C(=O)O)NC(=O)[C@H](CCCNC(=N)N)NC(=O)[C@@H](NC(=O)[C@H](C)NC(=O)[C@H](CCC(N)=O)NC(=O)[C@H](CCCCNC(=O)COCCOCCNC(=O)COCCOCCNC(=O)CC[C@H](NC(=O)CCCCCCCCCCCCC(=O)O)C(=O)O)NC(=O)[C@H](CCC(=O)O)NC(=O)[C@H](CC(C)C)NC(=O)[C@H](Cc1ccc(O)cc1)NC(=O)[C@H](CO)NC(=O)[C@H](CO)NC(=O)[C@@H](NC(=O)[C@H](CC(=O)O)NC(=O)[C@H](CO)NC(=O)[C@@H](NC(=O)[C@H](Cc1ccccc1)NC(=O)[C@@H](NC(=O)CNC(=O)[C@H](CCC(=O)O)NC(=O)C(C)(C)NC(=O)[C@@H](N)Cc1c[nH]cn1)[C@@H](C)O)[C@@H](C)O)C(C)C)C(C)C)C(=O)N[C@@H](C)C(=O)N[C@@H](Cc1c[nH]cn1)C(=O)N[C@@H](CC(C)C)C(=O)N[C@H](C(=O)N[C@@H](CCCNC(=N)N)C(=O)NCC(=O)N[C@@H](CCCNC(=N)N)C(=O)NCC(=O)O)C(C)C [Example 7, N^ε22-[2-[2-[2-[[2-[2-[2-[[(4S)-4-carboxy-4-(13-carboxytridecanoylamino)butanoyl]amino]ethoxy]ethoxy]acetyl]amino]ethoxy]ethoxy]acetyl],N^ε27-[2-[2-[2-[[2-[2-[2-[[(4S)-4-carboxy-4-(13-carboxytridecanoylamino)butanoyl]amino]ethoxy]ethoxy]acetyl]amino]ethoxy]ethoxy]acetyl]-[Aib^8,Lys^22,Val^25,Arg^26,Lys^27,His^31,Arg^34]-GLP-1-(7-37)-peptide] (H-H[Aib]EGTFTSDVSSYLEK([AEEA-AEEA-γGlu-C14 diacid])QAVRK([AEEA-AEEA-γGlu-C14 diacid])FIAHLVRGRG-OH) | 99 | 174 | – | –
3 | CC[C@H](C)[C@H](NC(=O)[C@H](Cc1ccccc1)NC(=O)[C@H](CCCCNC(=O)COCCOCCNC(=O)COCCOCCNC(=O)CC[C@H](NC(=O)CCCCCCCCCCCCC(=O)O)C(=O)O)NC(=O)[C@H](CCCNC(=N)N)NC(=O)[C@@H](NC(=O)[C@H](C)NC(=O)[C@H](CCC(N)=O)NC(=O)[C@H](CCCCNC(=O)COCCOCCNC(=O)COCCOCCNC(=O)CC[C@H](NC(=O)CCCCCCCCCCCCC(=O)O)C(=O)O)NC(=O)[C@H](CCC(=O)O)NC(=O)[C@H](CC(C)C)NC(=O)[C@H](Cc1ccc(O)cc1)NC(=O)[C@H](CO)NC(=O)[C@H](CO)NC(=O)[C@@H](NC(=O)[C@H](CC(=O)O)NC(=O)[C@H](CO)NC(=O)[C@@H](NC(=O)[C@H](Cc1ccccc1)NC(=O)[C@@H](NC(=O)CNC(=O)[C@H](CCC(=O)O)NC(=O)C(C)(C)NC(=O)[C@@H](N)Cc1c[nH]cn1)[C@@H](C)O)[C@@H](C)O)C(C)C)C(C)C)C(=O)N[C@@H](C)C(=O)N[C@@H](Cc1c[nH]c2ccccc12)C(=O)N[C@@H](CC(C)C)C(=O)N[C@H](C(=O)N[C@@H](CCCNC(=N)N)C(=O)O)C(C)C [Example 8, N^ε22-[2-[2-[2-[[2-[2-[2-[[(4S)-4-carboxy-4-(13-carboxytridecanoylamino)butanoyl]amino]ethoxy]ethoxy]acetyl]amino]ethoxy]ethoxy]acetyl], N^ε27-[2-[2-[2-[[2-[2-[2-[[(4S)-4-carboxy-4-(13-carboxytridecanoylamino)butanoyl]amino]ethoxy]ethoxy]acetyl]amino]ethoxy]ethoxy]acetyl]-[Aib^8,Lys^22,Val^25,Arg^26,Lys^27,Arg^34]-GLP-1-(7-34)-peptide] (H-H[Aib]EGTFTSDVSSYLEK([AEEA-AEEA-γGlu-C14 diacid])QAVRK([AEEA-AEEA-γGlu-C14 diacid])FIAWLVR-OH) | 86 | 57 | – | –
4 | CC[C@H](C)[C@H](NC(=O)[C@H](Cc1ccccc1)NC(=O)[C@H](CCCCNC(=O)COCCOCCNC(=O)COCCOCCNC(=O)CC[C@H](NC(=O)CCCCCCCCCCCCC(=O)O)C(=O)O)NC(=O)[C@H](CCCNC(=N)N)NC(=O)[C@@H](NC(=O)[C@H](C)NC(=O)[C@H](CCC(N)=O)NC(=O)[C@H](CCCCNC(=O)COCCOCCNC(=O)COCCOCCNC(=O)CC[C@H](NC(=O)CCCCCCCCCCCCC(=O)O)C(=O)O)NC(=O)[C@H](CCC(=O)O)NC(=O)[C@H](CC(C)C)NC(=O)[C@H](Cc1ccc(O)cc1)NC(=O)[C@H](CO)NC(=O)[C@H](CO)NC(=O)[C@@H](NC(=O)[C@H](CC(=O)O)NC(=O)[C@H](CO)NC(=O)[C@@H](NC(=O)[C@H](Cc1ccccc1)NC(=O)[C@@H](NC(=O)CNC(=O)[C@H](CCC(=O)O)NC(=O)C(C)(C)NC(=O)[C@@H](N)Cc1c[nH]cn1)[C@@H](C)O)[C@@H](C)O)C(C)C)C(C)C)C(=O)N[C@@H](C)C(=O)N[C@@H](Cc1c[nH]c2ccccc12)C(=O)N[C@@H](CC(C)C)C(=O)N[C@H](C(=O)N[C@@H](CCCNC(=N)N)C(=O)NCC(=O)O)C(C)C [Example 9, N^ε22-[2-[2-[2-[[2-[2-[2-[[(4S)-4-carboxy-4-(13-carboxytridecanoylamino)butanoyl]amino]ethoxy]ethoxy]acetyl]amino]ethoxy]ethoxy]acetyl],N^ε27-[2-[2-[2-[[2-[2-[2-[[(4S)-4-carboxy-4-(13-carboxytridecanoylamino)butanoyl]amino]ethoxy]ethoxy]acetyl]amino]ethoxy]ethoxy]acetyl]-Aib^8,Lys^22,Val^25,Arg^26,Lys^27,Arg^34l-GLP-1-(7-35)-peptide] (H-H[Aib]EGTFTSDVSSYLEK([AEEA-AEEA-γGlu-C14 diacid])QAVRK([AEEA-AEEA-γGlu-C14 diacid])FIAWLVRG-OH) | 65 | 157 | 0.38 | –
5 | CC[C@H](C)[C@H](NC(=O)[C@H](Cc1ccccc1)NC(=O)[C@H](CCCCNC(=O)COCCOCCNC(=O)COCCOCCNC(=O)CC[C@H](NC(=O)CCCCCCCCCCCCC(=O)O)C(=O)O)NC(=O)[C@H](CCCNC(=N)N)NC(=O)[C@@H](NC(=O)[C@H](C)NC(=O)[C@H](CCC(N)=O)NC(=O)CNC(=O)[C@H](CCC(=O)O)NC(=O)[C@H](CC(C)C)NC(=O)[C@H](Cc1ccc(O)cc1)NC(=O)[C@H](CO)NC(=O)[C@H](CO)NC(=O)[C@@H](NC(=O)[C@H](CC(=O)O)NC(=O)[C@H](CO)NC(=O)[C@@H](NC(=O)[C@H](Cc1ccccc1)NC(=O)[C@@H](NC(=O)CNC(=O)[C@H](CCC(=O)O)NC(=O)C(C)(C)NC(=O)[C@@H](N)Cc1c[nH]cn1)[C@@H](C)O)[C@@H](C)O)C(C)C)C(C)C)C(=O)N[C@@H](C)C(=O)N[C@@H](Cc1c[nH]cn1)C(=O)N[C@@H](CC(C)C)C(=O)N[C@H](C(=O)N[C@@H](CCC(N)=O)C(=O)NCC(=O)N[C@@H](CCCNC(=N)N)C(=O)N[C@@H](CCCCNC(=O)COCCOCCNC(=O)COCCOCCNC(=O)CC[C@H](NC(=O)CCCCCCCCCCCCC(=O)O)C(=O)O)C(=O)O)C(C)C [Example 15, N^ε27-[2-[2-[2-[[2-[2-[2-[[(4S)-4-carboxy-4-(13-carboxytridecanoylamino)butanoyl]amino]ethoxy]ethoxy]acetyl]amino]ethoxy]ethoxy]acetyl], N^ε37-[2-[2-[2-[[2-[2-[2-[[(4S)-4-carboxy-4-(13-carboxytridecanoylamino)butanoyl]amino]ethoxy]ethoxy]acetyl]amino]ethoxy]ethoxy]acetyl]-[Aib^8,Val^25,Arg^26,Lys^27,His^31,Gln^34,Lys^37]-GLP-1-(7-37)-peptide] (H-H[Aib]EGTFTSDVSSYLEGQAVRK([AEEA-AEEA-γGlu-C14 diacid])FIAHLVQGRK([AEEA-AEEA-γGlu-C14 diacid])-OH) | 98 | 155 | 0.19 | 29
